Data on one compound can be found in patent publication US9636368B2, “Strain of Lactobacillus rhamnosus and its metabolites for use in inhibiting xanthine oxidase and treating gout” (Food Industry Research and Development Institute, priority 2014, dated 2017).

For the assay, the system named is uric acid in the serum of the mice. The assay can be described thus: Treatment of experimental uricemia: potassium oxonate-induced high serum uric acid in ICR mice. The assay is classed as in vivo. The conditions noted are these: potassium oxonate (400 mg/kg) + allopurinol 10 mg/kg, fed via feeding tube, sacrificed after one hour, oxonate alone 4.91 ± 0.08, saline control 3.51 ± 0.02. The procedure: Lactobacillus rhamnosus I21 was inoculated on an MRS plate and cultured at 37° C. for 3 days. Bacteria were scraped from the plate using a 1 μl sterile inoculation loop, inoculated into MRS broth, and grown at 37° C. for 1 day to prepare an inoculum. The inoculum (30 ml) was then added into 3 L MRS broth in a 5 L fermenter and grown at 37° C. for 2 days. The fermentation broth was centrifuged at 3000 rpm for 15 min. The supernatant was collected and lyophilized to produce the Lactobacillus rhamnosus I21 fermentation product.
ICR mice were used as experimental animals. Potassium oxonate, a uricase inhibitor, was used to induce a high level of uric acid in the serum of the mice. Mice were fasted for one hour and then fed saline or potassium oxonate (400 mg/kg) via a feeding tube. After one hour, potassium oxonate-treated mice were fed saline, allopurinol (10 mg/kg), or a Lactobacillus rhamnosus I21 fermentation product (150 mg or 200 mg resuspended in saline per mouse) prepared as described above. Ten animals were used for each experimental group and for the control group. The animals were sacrificed after one hour and the level of uric acid in their serum was analyzed.

For `Oc1ncnc2[nH]ncc12` [allopurinol], the “serum uric acid concentration” value worked out at 2.82 ± 0.28 mg/dL.
